In US7741493B2, “Heterocyclic compounds as P2X7 ion channel blockers” (Aventis Pharmaceuticals Inc., priority 2003, dated 2010):
Where a name gives a salt, the structure may show the parent alone.

target: T1, P2X7 (Homo sapiens, UniProt Q99572); experiment: YO-PRO-1 dye uptake assay in U373 cells stably expressing P2X7; format: cell-based; set-up: The complete open reading frame of human P2X7 was amplified from Incyte clone 148057; expressed in transfected cells; settings: IC50 (nM), dye uptake through P2X7, U373 cells, 300 μM BzATP, 5 μM YO-PRO-1, test compounds 30 nM to 3 μM
T1 sequence (Q99572 1-595): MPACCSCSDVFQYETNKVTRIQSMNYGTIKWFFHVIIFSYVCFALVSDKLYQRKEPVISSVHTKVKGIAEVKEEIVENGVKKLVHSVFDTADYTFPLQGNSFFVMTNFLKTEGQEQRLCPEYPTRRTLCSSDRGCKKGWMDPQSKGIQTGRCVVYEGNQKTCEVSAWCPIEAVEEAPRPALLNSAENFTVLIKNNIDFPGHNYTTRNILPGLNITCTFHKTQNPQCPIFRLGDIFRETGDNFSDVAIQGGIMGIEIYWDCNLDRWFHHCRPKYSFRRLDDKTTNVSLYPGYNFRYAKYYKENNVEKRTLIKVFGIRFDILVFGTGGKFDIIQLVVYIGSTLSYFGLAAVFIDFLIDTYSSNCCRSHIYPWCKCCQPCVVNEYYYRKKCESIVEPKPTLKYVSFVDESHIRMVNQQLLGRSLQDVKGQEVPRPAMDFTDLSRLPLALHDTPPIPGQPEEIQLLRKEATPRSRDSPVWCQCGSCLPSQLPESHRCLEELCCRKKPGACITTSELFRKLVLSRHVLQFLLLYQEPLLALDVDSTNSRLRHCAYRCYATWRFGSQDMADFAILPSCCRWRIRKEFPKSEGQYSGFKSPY
Protocol: Following a 24-hr exposure to DNA, cells were trypsinized and re-seeded at low density in the presence of […] G418. After incubation for 2 weeks, isolated clones were selected with cloning cylinders and replated in […] G418. Cell clones were then expanded. Clones were screened for P2X7 by applying ATP and recording the resultant current using patch clamp electrophysiology.
U373 cells stably expressing P2X7 were used to screen drugs via a dye uptake assay. Cells were plated overnight on collagen coated 96-well plates at a density of 35,000 cells per well. The following day, culture media was replaced with Mg^++ and Ca^++-free Hank's balanced salt solution and various concentrations of test compounds ranging from 30 nM to 3 μM. Cells were then allowed to incubate with test compounds at 37° C. for 20 minutes. Following this incubation period YO-PRO-1 dye (Molecular Probes, Eugene, Oreg., final concentration 5 μM) and 2′-& 3′-O-(4-Benzolybenzoyl)-Adenosine 5′-triphosphate (Sigma Chemical, St Louis, Mo., final concentration 300 μM) were added to the cells sequentially. Cells were then incubated at 37° C. for 1.5 hours. […] Fluorescence in the presence of test substances was compared to that in the absence of test substances (control).

Structure (SMILES) | IC50 [nM]
c1ccc(CCCCC2=N[C@H](c3ccccc3)[C@H](c3ccccc3)N2)cc1 [2-[4-phenyl-butyl]-cis-4,5-diphenyl-4,5-dihydro-1H-imidazole trifluoroacetate] | 610

same assay, conditions: dye uptake through P2X7, U373 cells, 300 μM BzATP, 5 μM YO-PRO-1, test compounds 30 nM to 3 μM; read-out: IC50

Structure (SMILES) | IC50 [nM]
Fc1ccc([C@H]2NC(NCc3ccccc3)=N[C@H]2c2ccc(F)cc2)cc1 [[cis-4,5-bis-(4-Fluorophenyl)-4,5-dihydro-1H-imidazol-2-yl]-benzylamine hydrochloride] | 371
Fc1cccc([C@H]2NC(Cc3ccc(F)c(F)c3)=N[C@H]2c2cccc(F)c2)c1 [2-(3,4-Difluorobenzyl)-cis-4,5-bis-(3-fluorophenyl)-4,5-dihydro-1H-imidazole trifluoroacetate] | 79
Fc1ccc(CSC2=N[C@@H](c3ccccc3)[C@@H](c3ccccc3)N2)cc1F [2-[(3,4-Difluorobenzyl)thio]-cis-4,5-diphenyl-4,5-dihydro-1H-imidazole hydrochloride] | 461
C[C@]1(c2ccccc2)N=C(Cc2cccc(Cl)c2)N[C@H]1c1ccccc1 (relative stereo) [2-(3-Chlorobenzyl)-cis-4,5-diphenyl-4-methyl-4,5-dihydro-1H-imidazole trifluoroacetate] | 42
Cc1ccc(CC2=N[C@@H](c3ccccc3)[C@@H](c3ccccc3)N2)cc1F [trifluoroacetate] | 178
Fc1ccc(CCC2=N[C@H](c3ccccc3)[C@H](c3ccccc3)N2)cc1F [2-[2-(3,4-Difluorophenyl)ethyl]-cis-4,5-diphenyl-4,5-dihydro-1H-imidazole] | 122
C[C@]1(c2ccccc2)N=C(Cc2ccc(F)cc2)N[C@H]1c1ccccc1 (relative stereo) [2-(4-Fluorobenzyl)-cis-4,5-diphenyl-4-methyl-4,5-dihydro-1H-imidazole trifluoroacetate] | 44
C[C@@]1(c2cccc(F)c2)N=C(Cc2ccc(F)cc2)N[C@@H]1c1cccc(F)c1 (relative stereo) [2-(4-Fluorobenzyl)-cis-4,5-bis-(3-fluorophenyl)-4-methyl-4,5-dihydro-1H-imidazole trifluoroacetate] | 32
Cc1cccc(CC2=N[C@@H](c3ccccc3)[C@@H](c3ccccc3)N2)c1 [cis-4,5-diphenyl-2-(3-methylbenzyl)-4,5-dihydro-1H-imidazole] | 376
CC(Cc1ccccc1)C1=N[C@@H](c2ccccc2)[C@@H](c2ccccc2)N1 (relative stereo) [2-[1-Methyl-2-phenylethyl]-cis-4,5-diphenyl-4,5-dihydro-1H-imidazole trifluoroacetate] | 570
Clc1ccccc1CCC1=N[C@@H](c2ccccc2)[C@@H](c2ccccc2)N1 [2-[2-(2-Chlorophenyl)ethyl]-cis-4,5-diphenyl-4,5-dihydro-1H-imidazole trifluoroacetate] | 48
c1ccc(CCOCC2=N[C@@H](c3ccccc3)[C@@H](c3ccccc3)N2)cc1 [cis-4,5-diphenyl-2-[(2-phenethyloxy)methyl]-4,5-dihydro-1H-imidazole] | 768
Cc1cccc([C@H]2NC(NCc3ccccc3)=N[C@H]2c2cccc(C)c2)c1 [[cis-4,5-bis-(3-Methylphenyl)-4,5-dihydro-1H-imidazol-2-yl]-benzylamine hydrochloride] | 157
Fc1ccc(CC2=N[C@H](c3ccccc3)[C@H](c3ccccc3)N2)cc1 [cis-4,5-diphenyl-2-(4-fluorobenzyl)-4,5-dihydro-1H-imidazole] | 46
CC(C)(C1=N[C@@H](c2ccccc2)[C@@H](c2ccccc2)N1)c1ccc(Cl)cc1 | 537
Fc1ccc(CC2=N[C@@H](c3ccccc3)[C@@H](c3ccccc3)N2)c(Cl)c1 [trifluoroacetate] | 120
C[C@]1(c2ccccc2)N=C(Cc2ccc(F)c(F)c2)N[C@H]1c1ccccc1 (relative stereo) [2-(3,4-Difluorobenzyl)-cis-4,5-diphenyl-4-methyl-4,5-dihydro-1H-imidazole trifluoroacetate] | 19
Cc1ccc([C@H]2NC(NCc3ccc(F)cc3)=N[C@H]2c2ccc(C)cc2)cc1 [[cis-4,5-bis-(4-Methylphenyl)-4,5-dihydro-1H-imidazol-2-yl]-(4-fluorobenzyl)amine hydrochloride] | 287

Other lines, results leading:

IC50 [nM] | Structure (SMILES)
966 | Fc1cccc(F)c1CC1=N[C@@H](c2ccccc2)[C@@H](c2ccccc2)N1 [trifluoroacetate]
385 | Cc1cccc(CCC2=N[C@@H](c3cccc(F)c3)[C@@H](c3cccc(F)c3)N2)c1 [2-[2-(3-Methylphenyl)ethyl]-cis-4,5-bis-(3-fluorophenyl)-4,5-dihydro-1H-imidazole trifluoroacetate]
356 | CC(Oc1ccccc1)C1=N[C@@](C)(c2ccccc2)[C@@H](c2ccccc2)N1 (relative stereo) [2-(1-Phenoxyethyl)-cis-4,5-diphenyl-4-methyl-4,5-dihydro-1H-imidazole trifluoroacetate]
101 | COC(C1=N[C@@H](c2ccccc2)[C@@H](c2ccccc2)N1)c1ccccc1 (stereo partly drawn) [cis-4,5-diphenyl-2-(methoxy-phenyl-methyl)-4,5-dihydro-1H-imidazole]
225 | Brc1cccc(CNC2=N[C@@H](c3ccccc3)[C@@H](c3ccccc3)N2)c1 [cis-4,5-diphenyl-2-(3-bromobenzyl)amino-4,5-dihydro-1H-imidazole]
173 | Fc1cccc([C@H]2NC(CCc3ccc(F)c(F)c3)=N[C@H]2c2cccc(F)c2)c1 [2-[2-(3,4-Difluorophenyl)ethyl]-cis-4,5-bis-(3-fluorophenyl)-4,5-dihydro-1H-imidazole]
63 | C[C@@]1(c2ccccc2)N=C(NCc2ccc(F)cc2)N[C@@H]1c1ccccc1 (relative stereo) [(cis-4,5-Diphenyl-4-methyl-4,5-dihydro-1H-imidazol-2-yl)-(4-fluorobenzyl)amine hydrochloride]
121 | Cc1ccccc1[C@H]1NC(NCc2cccc(F)c2)=N[C@H]1c1ccccc1C [[cis-4,5-bis-(2-Methylphenyl)-4,5-dihydro-1H-imidazol-2-yl]-(3-fluorobenzyl)amine hydrochloride]
24 | Fc1ccc(CC2=N[C@@H](c3ccccc3)[C@@H](c3ccccc3)N2)cc1F [2-(3,4-Difluorobenzyl)-cis-4,5-diphenyl-4,5-dihydro-1H-imidazole trifluoroacetate]
146 | Fc1cccc([C@H]2NC(CCc3ccccc3)=N[C@H]2c2cccc(F)c2)c1 [cis-4,5-bis(3-fluorophenyl)-2-(2-phenylethyl)-4,5-dihydro-1H-imidazole]
194 | C[C@@]1(c2ccccc2)N=C(COCC2CCCC2)N[C@@H]1c1ccccc1 (relative stereo) [2-[(Cyclopentylmethoxy)methyl]-cis-4,5-diphenyl-4-methyl-4,5-dihydro-1H-imidazole hydrochloride]
195 | OC(CC1=N[C@@H](c2ccccc2)[C@@H](c2ccccc2)N1)c1ccccc1 (stereo partly drawn) [2-(cis-4,5-diphenyl-4,5-dihydro-1H-imidazol-2-yl)-1-phenylethan-1-ol]
625 | O=C(Nc1ccccc1)OC(C1=NC(c2ccccc2)C(c2ccccc2)N1)c1ccccc1 (stereo not shown) [trifluoroacetate]
71 | Fc1ccc(CNC2=N[C@@H](c3cccc(F)c3)[C@@H](c3cccc(F)c3)N2)cc1 [[cis-4,5-bis-(3-Fluorophenyl)-4,5-dihydro-1H-imidazol-2-yl]-(4-fluorobenzyl)amine hydrochloride]
331 | Fc1ccc(CCNC2=N[C@@H](c3ccccc3)[C@@H](c3ccccc3)N2)cc1 [cis-4,5-diphenyl-2-[2-(4-fluorophenyl)ethylamino]-4,5-dihydro-1H-imidazole]
378 | Fc1ccc(CNC2=N[C@@H](c3ccccc3Cl)[C@@H](c3ccccc3Cl)N2)cc1F [[cis-4,5-bis-(2-Chlorophenyl)-4,5-dihydro-1H-imidazol-2-yl]-(3,4-difluorobenzyl)-amine hydrochloride]
449 | Cc1ccccc1CSC1=N[C@@H](c2ccccc2)[C@@H](c2ccccc2)N1 [cis-4,5-diphenyl-2-(2-methylbenzyl)thio-4,5-dihydro-1H-imidazole]
405 | C[C@@]1(c2ccccc2)N=C(COc2ccccc2)N[C@@H]1c1ccccc1 (relative stereo) [2-[(Phenoxy)methyl]-cis-4,5-diphenyl-4-methyl-4,5-dihydro-1H-imidazole trifluoroacetate]
